# Reference: patent publication US20250277208A1, “Method of Peptide Library Construction and Peptides Thereof” (Alcamena Stem Cell Therapeutics, LLC, priority 2024, published 2025)
# Where “and” joins values, the source holds several entries; their conditions need not be identical. Equal values may be shown once. Square brackets hold non-standard residues; d marks the D form. Ends that are not written are not given here. Phe(4-F) = N[C@@H](Cc1ccc(F)cc1)C(=O)O; Gla = N[C@@H](CC(C(=O)O)C(=O)O)C(=O)O; Cha = N[C@@H](CC1CCCCC1)C(=O)O
# Target: T1, IL-6 (Homo sapiens, UniProt P05231)
# T1 construct: purchased R&D Systems BT7270B
# Experiment: Biacore surface plasmon resonance binding of peptides to immobilised IL-6
# Settings: not given
# Description: Two DNA fragments were amplified from a synthetic fragment of the IL-6R. The 5′ fragment was amplified with forward primer and a mixture of 432 reverse primers, each containing an overhang of 6 codons. The 3′ fragment was amplified with a mixture of 432 forward primers, also containing overhangs of six degenerate codons and the reverse primer. Either the first or the second nucleotide of each codon was replaced with a degenerate base. Following PCR amplification, DNA fragments were phosphorylated and ligated leading to various sequence rearrangements shown at the bottom of the FIG. 3. Four hundred thirty-two forward and reverse oligos with an overhang of 6 codons from the IL-6R binding domain were used for PCR. A degenerate nucleotide was inserted at the first or second position of each codon. When ligated, these sequences generated a library of 1×10^13 different DNA sequences. The library of DNA sequences was taken through eight rounds of mRNA Display generating a peptide library. Eighteen of the most abundant peptides in the peptide library were synthesized in a linear form and tested for binding to IL-6 using Biacore. One of the peptides (#9) (“Peptide 9”) from the peptide library, with the sequence of […] The twelve non-terminal residues represent the PepFusion library-derived DNA sequences, while N-terminal serine and C-terminal glycine come from the flanking linkers and were kept as a precaution, in case linker sequences contributed to peptide interaction with its target.
# Binding reactions were performed in HBS-P/2% DMSO buffer (10 mM Hepes, pH 7.4, 150 mM NaCl, 0.05% P-20, 2% DMSO), which was filtered through […] filters and degassed before use. Biotinylated recombinant human IL-6 (IL-6-Biotin) was bound to the surface of a Biacore SA sensor chip of a Biacore T200 surface plasmon resonance unit as follows. The streptavidin surface of the chip (flow cells 1 and 2) was activated by injecting 20 μl of 1 M NaCl/50 mM NaOH at 20 μl/min, in 3 pulses. Biotinylated Recombinant Human IL6 was diluted with HBS-P buffer and an aliquot of 100 μl (2 micrograms/ml) was injected into flow cell 2 at 5 microliters/min to yield a signal of 1400 response units (RU) (10 microliters were injected). Any remaining activated residues on the streptavidin surface of flow cells 1 and 2 were blocked with 30 microliters 500 nM free Biotin.
# (§1) Affinity scouting assay was performed at a flow rate of 30 microliters/min at 25° C. The analyte (60 microliter aliquots of peptides, at concentrations of 20 μM in HBS-P/2% DMSO buffer) was injected into flow cells 1 and 2 and the association reaction was recorded. The surface was then washed with HBS-P/2% DMSO for 3 min and the dissociation of the analyte from the bound IL6 was followed over time. The surfaces of the flow cells were regenerated with 30 microliters of 10 mM NaOH, followed 50 microliters of HBS-P/2% DMSO buffer.
# as §1, with “Kinetics analysis of binding was performed” for “Affinity scouting assay was performed”, “concentrations of 0, 1.25 μM, 2.5 μM, 5 μM, 10 μM and 20 μM” for “concentrations of 20 μM”, “DMSO buffer. Sensorgrams were analyzed using BIAeveluation 3.2.1 software (Cytiva). Values from the reference flow cell were subtracted to obtain the values for specific binding. Data were globally fitted to the Langmuir model for a 1:1 mass transfer binding.” for “DMSO buffer.”
row,Molecule,"binding to IL-6, in words"
1,"FD(Cha)DIHLL(4F)LPTEWEK(Cla)KNEE (FD[Cha]DIHLL[Phe(4-F)]LPTEWEK[Gla]KNEE) [PN-2519, reference compound]",no activity
2,SVRDLLRRMCHCVG [Peptide 67],no binding

# The next lines start with the values.
row,"binding to IL-6, in words",Molecule
1,eliminated its activity,"FD(hL)DIHLLELPTEWEKDKNEE [PN-1974(2), peptide PN-1974 with termini protected by acetylation and amidation, reference compound]"
2,did not bind,"INTLLSEINSILLDIISLL [RA07, published control peptide described in Kobayashi et al., Mol Biotechnol 2011, reference compound]"
3,no binding,"SVKDLQHGLRHVVG [Peptide C1, control peptide homologous to peptide 9, devoid of any mutations; two unmutated fragments of IL-6R, reference compound]"

# Same assay, conditions: KD (nM) P < 0.05, Table 1; N and C termini not protected; cells printed in μM
row,Molecule,Kd [nM]
1,"GNSRDLLRRMCHIVG [Peptide 42, GNSRDLLRRMCHIVG]",> 10000

# Same assay, conditions: Table 1; N and C termini not protected; cells printed in μM; read-out: KD (nM) P < 0.05
row,Molecule,Kd [nM]
1,"SVRDLHKMMCHIVG [Peptide 25, SVRDLHKMMCHIVG]",> 10000
2,"SVRDLLHGRCHIVG [Peptide 40, SVRDLLHGRCHIVG]",> 10000
3,"SVRDLLNRICHIVG [Peptide 21, SVRDLLNRICHIVG]",> 10000
4,"SVRDLLRMFCHIVG [Peptide 23, SVRDLLRMFCHIVG]",> 10000
5,"SVRDLPRIMCHIVG [Peptide 31, SVRDLPRIMCHIVG]",> 10000
6,"SVRDNFHRMCHIVG [Peptide 30, SVRDNFHRMCHIVG]",> 10000

# Results, then the molecule that gave them:
row,Kd [nM],Molecule
1,> 10000,"LEIRDLLRRMCHIVG [Peptide 26, LEIRDLLRRMCHIVG]"
2,> 10000,"LGHRDLLRRMCHIVG [Peptide 29, LGHRDLLRRMCHIVG]"
3,> 10000,"SNYTLLRRMCHIVG [Peptide 36, SNYTLLRRMCHIVG]"
4,> 10000,"SVHIHLRRMCHIVG [Peptide 34, SVHIHLRRMCHIVG]"
5,> 10000,"SVRDLLRRMCHPRLG [Peptide 46, SVRDLLRRMCHPRLG]"
6,> 10000,"SVRDPHNRMCHIVG [Peptide 22, SVRDPHNRMCHIVG]"
7,> 10000,"SVRIYLRRMCHIVG [Peptide 20, SVRIYLRRMCHIVG]"
8,> 10000,"SVSIHLRRMCHIVG [Peptide 32, SVSIHLRRMCHIVG]"

# Same assay, conditions: Table 1; termini not protected
row,Molecule,"binding affinity compared with parent peptide 9, in words"
1,CVYRDLLRRMCHIVG [Peptide 35],completely lost binding affinity
2,"H-ATIRDLLRRMCHIVG-OH [Peptide 38, ATIRDLLRRMCHIVG]",improved binding affinity
3,"H-ETIRDLLRRMCHIVG-OH [Peptide 24, ETIRDLLRRMCHIVG]",improved binding affinity
4,"H-FAFRDLLRRMCHIVG-OH [Peptide 45, FAFRDLLRRMCHIVG]",improved binding affinity
5,"H-SVRDLIRMMCHIVG-OH [Peptide 33, SVRDLIRMMCHIVG]",improved binding affinity
6,SVRDLQKOMCHIVG (SVRDLQKQMCHIVG; not fully specified) [Peptide 44],completely lost binding affinity

# Continued, values first:
row,"binding affinity compared with parent peptide 9, in words",Molecule
1,improved binding affinity,"H-SVRDLLRRMKVCVG-OH [Peptide 27, SVRDLLRRMKVCVG]"
2,reduced binding affinity,"NERRDLLRRMCHIVG [Peptide 41, NERRDLLRRMCHIVG]"

# Same assay, conditions: Table 2; N terminus acetylated, C terminus amidated; cells printed in μM; read-out: KD (nM) P < 0.05
row,Molecule,Kd [nM]
1,"Ac-FSFRDLIRMMCHIVG-NH2 [Peptide 74, FSFRDLIRMMCHIVG]",> 10000
2,"Ac-FSFRDLLRRMKHIVG-NH2 [Peptide 91, FSFRDLLRRMKHIVG]",> 10000
3,"Ac-TIRDLLRMMKHIVG-NH2 [Peptide 98, TIRDLLRMMKHIVG]",> 10000

# More lines, now with the values ahead:
row,Kd [nM],Molecule
1,> 10000,"Ac-ATIRDLIRMMKHIVG-NH2 [Peptide 96, ATIRDLIRMMKHIVG]"
2,> 10000,"Ac-ATIRDLLRMMKHIVG-NH2 [Peptide 95, ATIRDLLRMMKHIVG]"
3,> 10000,"Ac-ATIRDLLRRMKHIVG-NH2 [Peptide 94, ATIRDLLRRMKHIVG]"
4,> 10000,"Ac-FSFRDLLRMMKHIVG-NH2 [Peptide 92, FSFRDLLRMMKHIVG]"
5,> 10000,"Ac-FSVRDLLRMMKHIVG-NH2 [Peptide 86, FSVRDLLRMMKHIVG]"
6,> 10000,"Ac-FSVRDLLRRMKHIVG-NH2 [Peptide 85, FSVRDLLRRMKHIVG]"
7,> 10000,"Ac-SFRDLLRMMKHIVG-NH2 [Peptide 89, SFRDLLRMMKHIVG]"
8,> 10000,"Ac-SFRDLLRRMKHIVG-NH2 [Peptide 88, SFRDLLRRMKHIVG]"
9,> 10000,"Ac-TIRDLIRMMKHIVG-NH2 [Peptide 99, TIRDLIRMMKHIVG]"
10,> 10000,"Ac-TIRDLLRRMKHIVG-NH2 [Peptide 97, TIRDLLRRMKHIVG]"

# Same assay, conditions: Table 2; termini protected
row,Molecule,"affinity compared with the parent sequence, in words"
1,"Ac-FSFRDLLRMMCHIVG-NH2 [Peptide 80, FSFRDLLRMMCHIVG]",not improved
2,"Ac-SVRDLIRRMCHIVG-NH2 [Peptide 68, SVRDLIRRMCHIVG]",lowered affinity
3,"Ac-SVRDLLRMMCHIVG-NH2 [Peptide 69, SVRDLLRMMCHIVG]",no significant effect
4,"Ac-SVRDLLRRMCVIVG-NH2 [Peptide 66, SVRDLLRRMCVIVG]",slightly better affinity
5,"Ac-SVRDLLRRMKHIVG-NH2 [Peptide 65, SVRDLLRRMKHIVG]",slightly better affinity

# Further lines, results first:
row,"affinity compared with the parent sequence, in words",Molecule
1,not improved,"Ac-FAFRDLLRMMCHIVG-NH2 [Peptide 75, FAFRDLLRMMCHIVG]"
2,greatly improved,"Ac-TIRDLLRRMCHIVG-NH2 [Peptide 71, TIRDLLRRMCHIVG]"

# Same assay, conditions: termini not protected; read-out: KD
row,Kd [nM],Molecule
1,2500,"H-SVRDLLRRMCHIVG-OH [Peptide 9, SVRDLLRRMCHIVG]"

# Same assay, conditions: termini protected (acetylated, amidated); read-out: KD
row,Molecule,Kd
1,"Ac-ATIRDLIRMMCHIVG-NH2 [Peptide 51, ATIRDLIRMMCHIVG]",~100 nM and 128 nM
2,"Ac-ATIRDLIRMMKVIVG-NH2 [Peptide 83, ATIRDLIRMMKVIVG]",563 nM
3,"Ac-FAFRDLIRMMKHIVG-NH2 [Peptide 77, FAFRDLIRMMKHIVG]",≤ 1500 nM and 405 nM
4,"Ac-FAFRDLIRMMKVIVG-NH2 [Peptide 76, FAFRDLIRMMKVIVG]",≤ 1500 nM
5,"Ac-FSFRDLLRRMCHIVG-NH2 [Peptide 72, FSFRDLLRRMCHIVG]",27 nM

# Now from value to molecule:
row,Kd,Molecule
1,108 nM,"Ac-ATIRDLIRMMKVCVG-NH2 [Peptide 82, ATIRDLIRMMKVCVG]"
2,~100 nM and 71 nM,"Ac-FAFRDLIRMMCHIVG-NH2 [Peptide 58, FAFRDLIRMMCHIVG]"
3,≤ 1500 nM,"Ac-FAFRDLIRMMCVIVG-NH2 [Peptide 78, FAFRDLIRMMCVIVG]"
4,247 nM,"Ac-FAFRDLIRMMKVCVG-NH2 [Peptide 79, FAFRDLIRMMKVCVG]"

# Target: T2, Biotinylated recombinant human IL-6 (human, UniProt P05231 30-212, biotinylated (sites not given))
# T2 construct: In the cell bioassay IL-6 (0.5 nM) was used in solution; also called Interleukin-6; IL-6-Biotin
# Experiment: SPR (Biacore), IL-6 on chip
# Settings: not given
row,Kd [nM],Molecule
1,224,Ac-TVRDLLRRMCHIVG-NH2 [Peptide 55]
2,305,Ac-SIRDLLRRMCHIVG-NH2 [Peptide 56]
3,162,Ac-SFRDLLRRMCHIVG-NH2 [Peptide 63]
4,519,Ac-AVRDLLRRMCHIVG-NH2 [Peptide 62]
